Source: patent US20250101041A1, “POSITIVE ALLOSTERIC MODULATORS OF THE MUSCARINIC ACETYLCHOLINE RECEPTOR M4” (Vanderbilt University, priority 2022, published 2025)

Molecular target: T1, human mAChR M4 (Homo sapiens, UniProt P08173)
T1 construct: expressed in transfected cells; host or cells: CHO-K1 (American Type Culture Collection), stably expressing hM4 and Gqi5
T1 sequence (P08173 1-479): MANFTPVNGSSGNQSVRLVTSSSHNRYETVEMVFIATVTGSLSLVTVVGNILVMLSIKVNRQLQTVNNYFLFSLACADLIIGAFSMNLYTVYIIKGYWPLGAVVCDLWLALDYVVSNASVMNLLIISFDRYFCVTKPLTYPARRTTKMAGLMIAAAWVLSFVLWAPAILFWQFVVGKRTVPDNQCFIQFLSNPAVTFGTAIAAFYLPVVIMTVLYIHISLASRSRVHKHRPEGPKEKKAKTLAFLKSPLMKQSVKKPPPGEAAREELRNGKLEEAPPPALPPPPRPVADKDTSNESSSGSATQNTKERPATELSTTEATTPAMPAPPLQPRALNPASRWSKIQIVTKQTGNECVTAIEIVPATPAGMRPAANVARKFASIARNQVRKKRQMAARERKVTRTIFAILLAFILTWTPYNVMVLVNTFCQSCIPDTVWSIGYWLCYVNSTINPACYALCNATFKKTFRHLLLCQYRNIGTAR
Test: mAChR M4 cell-based functional assay: calcium mobilization (Fluo-4, FDSS), potentiation of EC20 acetylcholine response in hM4-Gqi5 CHO-K1 cells
Conditions: human M4; for Emax at 30 µM: CHO-K1, % ACh maximum at 30 μM; for EC50: potentiation of EC20 acetylcholine response, calcium mobilization
Outline: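 Readout is the fluorescence-ratio rise at 1 Hz on FDSS, with PAM activity taken as concentration-dependent enhancement of the EC20 acetylcholine response, fitted four-parameter for EC50/Emax. hM4-Gqi5 CHO-K1 cells carried Fluo-4 AM dye; test compounds (11 points, 1:3) preceded EC20 acetylcholine additions at 144 s and 230 s.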

Emax at 30 µM	EC50	Structure (SMILES)
95%	25 nM	Cc1cc2nccc(=O)n2nc1N1CCc2ncc(Nc3ccccc3Cl)cc2C1 [Compound 2-67, 7-(3-((2-chlorophenyl)amino)-7,8-dihydro-1,6-naphthyridin-6(5H)-yl)-8-methyl-4H-pyrimido[1,2-b]pyridazin-4-one]
63%	37 nM	CCc1ccncc1-c1cnc2c(c1)CN(c1nn3c(=O)ccnc3c(C)c1C)CC2 [Compound 1-96, 7-(3-(4-ethylpyridin-3-yl)-7,8-dihydro-1,6-naphthyridin-6(5H)-yl)-8,9-dimethyl-4H-pyrimido[1,2-b]pyridazin-4-one]
90%	375 nM	Cc1cc(=O)n2nc(N3CCc4ncc(-c5cccnc5)cc4C3)c(C)cc2n1 [Compound 1-290, 2,8-dimethyl-7-(3-(pyridin-3-yl)-7,8-dihydro-1,6-naphthyridin-6(5H)-yl)-4H-pyrimido[1,2-b]pyridazin-4-one]
44%	1880 nM	Cc1cc2nccc(=O)n2nc1N1CCc2ncc(NC(=O)c3ncco3)cc2C1 [Compound 2-122, N-(6-(8-methyl-4-oxo-4H-pyrimido[1,2-b]pyridazin-7-yl)-5,6,7,8-tetrahydro-1,6-naphthyridin-3-yl)oxazole-2-carboxamide]
82%	588 nM	Cc1cc2nccc(=O)n2nc1N1CCc2ncc(-c3cn(C(F)F)nc3C)cc2C1 [Compound 1-417, 7-(3-(1-(difluoromethyl)-3-methyl-1H-pyrazol-4-yl)-7,8-dihydro-1,6-naphthyridin-6(5H)-yl)-8-methyl-4H-pyrimido[1,2-b]pyridazin-4-one]
79%	900 nM	Cc1c(N2CCc3ncc(-c4ccc(F)c(F)c4)cc3C2)nn2c(=O)cc(C(F)F)nc2c1C [Compound 1-283, 2-(difluoromethyl)-7-(3-(3,4-difluorophenyl)-7,8-dihydro-1,6-naphthyridin-6(5H)-yl)-8,9-dimethyl-4H-pyrimido[1,2-b]pyridazin-4-one]
76%	339 nM	Cc1c(N2CCc3ncc(-c4ccc(N(C)C)nc4)cc3C2)nn2c(=O)cc(C(F)F)nc2c1C [Compound 1-92, 2-(difluoromethyl)-7-(3-(6-(dimethylamino)pyridin-3-yl)-7,8-dihydro-1,6-naphthyridin-6(5H)-yl)-8,9-dimethyl-4H-pyrimido[1,2-b]pyridazin-4-one]
76%	310 nM	Cc1cc(=O)n2nc(N3CCc4ncc(N5CC6CCC(C5)O6)cc4C3)c(C)c(C)c2n1 [Compound 2-43, 7-(3-(8-oxa-3-azabicyclo[3.2.1]octan-3-yl)-7,8-dihydro-1,6-naphthyridin-6(5H)-yl)-2,8,9-trimethyl-4H-pyrimido[1,2-b]pyridazin-4-one]
64%	2540 nM	Cc1cc2nccc(=O)n2nc1N1CCc2ncc(Nc3cnccn3)cc2C1 [Compound 2-127, 8-methyl-7-(3-(pyrazin-2-ylamino)-7,8-dihydro-1,6-naphthyridin-6(5H)-yl)-4H-pyrimido[1,2-b]pyridazin-4-one]
78%	337 nM	COCc1cc(=O)n2nc(N3CCc4ncc(-c5ccncc5)cc4C3)c(C)cc2n1 [Compound 1-362, 2-(methoxymethyl)-8-methyl-7-(3-(pyridin-4-yl)-7,8-dihydro-1,6-naphthyridin-6(5H)-yl)-4H-pyrimido[1,2-b] pyridazin-4-one]
86%	399 nM	Cc1c(N2CCc3ncc(-c4cnc(Cl)c(F)c4)cc3C2)nn2c(=O)ccnc2c1C [Compound 1-146, 7-(3-(6-chloro-5-fluoropyridin-3-yl)-7,8-dihydro-1,6-naphthyridin-6(5H)-yl)-8,9-dimethyl-4H-pyrimido[1,2-b]pyridazin-4-one]
63%	4380 nM	Cc1c(N2CCc3ncc(N4CC(C)(C)OC4=O)cc3C2)nn2c(=O)ccnc2c1C [Compound 2-150, 3-(6-(8,9-dimethyl-4-oxo-4H-pyrimido[1,2-b]pyridazin-7-yl)-5,6,7,8-tetrahydro-1,6-naphthyridin-3-yl)-5,5-dimethyloxazolidin-2-one]
86%	411 nM	Cc1cc2nccc(=O)n2nc1N1CCc2ncc(-c3cccc(C)c3C)cc2C1 [Compound 1-442, 7-(3-(2,3-dimethylphenyl)-7,8-dihydro-1,6-naphthyridin-6(5H)-yl)-8-methyl-4H-pyrimido [1,2-b]pyridazin-4-one]
88%	131 nM	Cc1c(N2CCc3ncc(-c4cnn(C)c4C)cc3C2)nn2c(=O)ccnc2c1C [Compound 1-338, 7-(3-(1,5-dimethyl-1H-pyrazol-4-yl)-7,8-dihydro-1,6-naphthyridin-6(5H)-yl)-8,9-dimethyl-4H-pyrimido[1,2-b]pyridazin-4-one]
66%	127 nM	[2H]C1([2H])Cc2ncc(Nc3ccncc3C)cc2C([2H])([2H])N1c1nn2c(=O)ccnc2cc1C [Compound 2-165, 8-methyl-7-(3-((3-methylpyridin-4-yl)amino)-7,8-dihydro-1,6-naphthyridin-6(5H)-yl-5,5,7,7-d4)-4H-pyrimido[1,2-b]pyridazin-4-one]
91%	29 nM	Cc1cc2nccc(=O)n2nc1N1CCc2ncc(Nc3ccccc3)cc2C1 [Compound 2-60, 8-methyl-7-(3-(phenylamino)-7,8-dihydro-1,6-naphthyridin-6(5H)-yl)-4H-pyrimido[1,2-b]pyridazin-4-one]
66%	2150 nM	Cc1cc(=O)n2nc(N3CCc4ncc(N5CCC6(CC5)COC6)cc4C3)c(C)c(C)c2n1 [Compound 2-47, 7-(3-(2-oxa-7-azaspiro[3.5]nonan-7-yl)-7,8-dihydro-1,6-naphthyridin-6(5H)-yl)-2,8,9-trimethyl-4H-pyrimido[1,2-b]pyridazin-4-one]
88%	1320 nM	Cc1cc2nccc(=O)n2nc1N1CCc2ncc(Nc3cc(C(F)(F)F)ncc3F)cc2C1 [Compound 2-152, 7-(3-((5-fluoro-2-(trifluoromethyl)pyridin-4-yl)amino)-7,8-dihydro-1,6-naphthyridin-6(5H)-yl)-8-methyl-4H-pyrimido[1,2-b]pyridazin-4-one]
89%	128 nM	Cc1c(N2CCc3ncc(-c4cnn(C)c4)cc3C2)nn2c(=O)ccnc2c1C [Compound 1-62, 8,9-dimethyl-7-(3-(1-methyl-1H-pyrazol-4-yl)-7,8-dihydro-1,6-naphthyridin-6(5H)-yl)-4H-pyrimido[1,2-b]pyridazin-4-one]
92%	80 nM	Cc1cc2nc(C(F)F)cc(=O)n2nc1N1CCc2ncc(-c3cnn(C)c3)cc2C1 [Compound 1-35, 2-(Difluoromethyl)-8-methyl-7-(3-(1-methyl-1H-pyrazol-4-yl)-7,8-dihydro-1,6-naphthyridin-6(5H)-yl)-4H-pyrimido[1,2-b]pyridazin-4-one]
90%	333 nM	Cc1c(N2CCc3ncc(-c4ccc(C(F)(F)F)nc4)cc3C2)nn2c(=O)cc(C(F)F)nc2c1C [Compound 1-93, 2-(difluoromethyl)-8,9-dimethyl-7-(3-(6-(trifluoromethyl)pyridin-3-yl)-7,8-dihydro-1,6-naphthyridin-6(5H)-yl)-4H-pyrimido[1,2-b]pyridazin-4-one]
